PubChem BioAssay AID330 (DTP/NCI, 2004)
“And” between values parts separate entries of the source, which are not always exact repeats. Identical values can stand only once. Toxic doses and inconclusive results are not listed. How the source made its calls: active means survival T/C of 150% or more; inactive means T/C below 125% in these data.

Test system: P388 leukemia ip, CD2F1 mice, survival T/C
Assay: NCI In Vivo Anticancer Drug Screen. Data for tumor model P388 Leukemia (intraperitoneal) in CD2F1 (CDF1) mice
Conditions: endpoint: median survival time, higher = longer survival
Summary of the method: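 Mice carrying the transplanted tumor received test compound or vehicle. Survival was recorded in each group, and the value is the treated-group measurement divided by that of the vehicle-treated control group.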

[1] = dose: 25.0 mg/kg/injection, schedule: Q01DX009 (ip), vehicle: Klucel (hydroxypropylcellulose) (HPC)
[2] = dose: 50.0 mg/kg/injection, schedule: Q01DX009 (ip), vehicle: Klucel (hydroxypropylcellulose) (HPC)
[3] = dose: 100.0 mg/kg/injection, schedule: Q01DX009 (ip), vehicle: Klucel (hydroxypropylcellulose) (HPC)
[4] = dose: 60.0 mg/kg/injection, schedule: Q01DX005 (ip), vehicle: saline with Tween-80
[5] = dose: 120.0 mg/kg/injection, schedule: Q01DX005 (ip), vehicle: saline with Tween-80
[6] = dose: 240.0 mg/kg/injection, schedule: Q01DX005 (ip), vehicle: saline with Tween-80
[7] = dose: 50.0 mg/kg/injection, schedule: Q01DX005 (ip), vehicle: saline with Tween-80
[8] = dose: 100.0 mg/kg/injection, schedule: Q01DX005 (ip), vehicle: saline with Tween-80
[9] = dose: 200.0 mg/kg/injection, schedule: Q01DX005 (ip), vehicle: saline with Tween-80
[10] = dose: 50.0 mg/kg/injection, schedule: Q01DX009 (ip), vehicle: saline
[11] = dose: 100.0 mg/kg/injection, schedule: Q01DX009 (ip), vehicle: saline
[12] = dose: 200.0 mg/kg/injection, schedule: Q01DX009 (ip), vehicle: saline
[13] = dose: 50.0 mg/kg/injection, schedule: Q01DX009 (ip), vehicle: saline with Tween-80
[14] = dose: 100.0 mg/kg/injection, schedule: Q01DX009 (ip), vehicle: saline with Tween-80
[15] = dose: 6.25 mg/kg/injection, schedule: Q01DX005 (ip), vehicle: water
[16] = dose: 25.0 mg/kg/injection, schedule: Q01DX009 (ip), vehicle: saline

Measured: T/C

CC1OC(O[C@@H]2C=C3CC[C@@H]4[C@H](CC[C@]5(C)[C@@H](c6ccc(=O)oc6)CC[C@]45O)[C@@]3(C)CC2)C(O)C(O)C1O (some centres undefined)
inactive: dose: 1.25 mg/kg/injection, schedule: Q01DX010 (sc), vehicle: steriod suspending solution 110 % of control | dose: 2.5 mg/kg/injection, schedule: Q01DX010 (sc), vehicle: steriod suspending solution 110 % of control | dose: 5.0 mg/kg/injection, schedule: Q01DX010 (sc), vehicle: steriod suspending solution 110 % of control | dose: 10.0 mg/kg/injection, schedule: Q01DX010 (sc), vehicle: steriod suspending solution 115 % of control

Cc1ccc(S(=O)(=O)N/N=C/c2ccccc2)cc1
inactive: [1] 95 % of control | [2] 94 % of control | [3] 95 % of control | dose: 200.0 mg/kg/injection, schedule: Q01DX009 (ip), vehicle: Klucel (hydroxypropylcellulose) (HPC) 97 % of control | dose: 400.0 mg/kg/injection, schedule: Q01DX009 (ip), vehicle: Klucel (hydroxypropylcellulose) (HPC) 109 % of control

O=C(Cc1nc2ccc([N+](=O)[O-])cc2nc1CC(=O)c1ccccc1)c1ccccc1
inactive: [4] 110 % of control | [5] 103 % of control | [6] 100 % of control

CN1C(=O)CN2CCc3ccccc3C2c2cc(Cl)ccc21 (centres undefined)
inactive: [7] 92 % of control | [8] 98 % of control | [9] 98 % of control

C/C(=N\OC(=O)c1c(-c2c(Cl)cccc2Cl)noc1C)c1ccccc1O
inactive: [10] 91 % of control | [11] 94 % of control | [12] 93 % of control

ClC1=C(Cl)C(Cl)=C(Cl)C1=C/C=C/c1ccccc1
inactive: dose: 25.0 mg/kg/injection, schedule: Q01DX009 (ip), vehicle: saline with Tween-80 99 % of control | [13] 100 % of control | [14] 91 % of control

O=C(O)C(Cc1ccsc1)NC(=O)C(F)(F)F (centres undefined)
inactive: dose: 50.0 mg/kg/injection, schedule: Q01DX009 (ip), vehicle: saline + alcohol 94 % of control | dose: 100.0 mg/kg/injection, schedule: Q01DX009 (ip), vehicle: saline + alcohol 99 % of control | dose: 200.0 mg/kg/injection, schedule: Q01DX009 (ip), vehicle: saline + alcohol 98 % of control

ClCCN1c2ccccc2Sc2ccc3ccccc3c21
inactive: [7] 89 % of control | [8] 93 % of control

O=C1c2ccccc2C(=O)N1CCC(=O)n1ccnc1
inactive: dose: 17.5 mg/kg/injection, schedule: Q01DX005 (ip), vehicle: Klucel (hydroxypropylcellulose) (HPC) 104 % of control | dose: 35.0 mg/kg/injection, schedule: Q01DX005 (ip), vehicle: Klucel (hydroxypropylcellulose) (HPC) 97 % of control | dose: 70.0 mg/kg/injection, schedule: Q01DX005 (ip), vehicle: Klucel (hydroxypropylcellulose) (HPC) 99 % of control

COc1cccc2c1C(=O)c1c(O)c3c(c(O)c1C2=O)CC(O)(C(O)CO)CC3OC1CC(N2CCCCC2)C(O)C(C)O1 (centres undefined)
active: dose: 1.56 mg/kg/injection, schedule: Q01DX009 (ip), vehicle: water 153 % of control and 157 % of control
inactive: dose: 0.39 mg/kg/injection, schedule: Q01DX009 (ip), vehicle: water 115 % of control | dose: 2.4 mg/kg/injection, schedule: Q04DX003 (ip), vehicle: water 100 % of control | dose: 4.7 mg/kg/injection, schedule: Q04DX003 (ip), vehicle: water 106 % of control | dose: 9.4 mg/kg/injection, schedule: Q04DX003 (ip), vehicle: water 114 % of control and 124 % of control | dose: 18.8 mg/kg/injection, schedule: Q04DX003 (ip), vehicle: water 124 % of control | dose: 75.0 mg/kg/injection, schedule: Q04DX003 (ip), vehicle: water 101 % of control

NC(N)=O.NC(N)=O.NC(N)=O.NC(N)=O.NC(N)=O.NC(N)=O.[Cr]
inactive: dose: 3.13 mg/kg/injection, schedule: Q04DX003 (ip), vehicle: saline 98 % of control | dose: 6.25 mg/kg/injection, schedule: Q04DX003 (ip), vehicle: saline 101 % of control | dose: 12.5 mg/kg/injection, schedule: Q04DX003 (ip), vehicle: saline 101 % of control and 102 % of control | dose: 25.0 mg/kg/injection, schedule: Q04DX003 (ip), vehicle: saline 103 % of control

O=C1C2=C(Nc3ccccc3N2)OC1c1ccco1 (centres undefined)
inactive: dose: 12.5 mg/kg/injection, schedule: Q01DX005 (ip), vehicle: Klucel (hydroxypropylcellulose) (HPC) 103 % of control | dose: 25.0 mg/kg/injection, schedule: Q01DX005 (ip), vehicle: Klucel (hydroxypropylcellulose) (HPC) 100 % of control | dose: 50.0 mg/kg/injection, schedule: Q01DX005 (ip), vehicle: Klucel (hydroxypropylcellulose) (HPC) 102 % of control and 89 % of control

Cc1ccc(CCNC(=O)c2c3nc4c(C(=O)NCCc5ccc(C)cc5)ccc(Br)c4oc-3c(Br)c(=O)c2N)cc1
inactive: [7] 93 % of control | [8] 86 % of control | [9] 106 % of control

NC(CNC(=O)CBr)C(=O)O (centres undefined)
active: dose: 100.0 mg/kg/injection, schedule: Q01DX005 (ip), vehicle: water 152 % of control
inactive: [15] 117 % of control and 118 % of control

CCOC(=C[P+](c1ccccc1)(c1ccccc1)c1ccccc1)OCC
inactive: dose: 0.39 mg/kg/injection, schedule: Q01DX005 (ip), vehicle: water 98 % of control and 103 % of control | dose: 0.78 mg/kg/injection, schedule: Q01DX005 (ip), vehicle: water 107 % of control and 96 % of control | dose: 1.56 mg/kg/injection, schedule: Q01DX005 (ip), vehicle: water 102 % of control and 110 % of control and 121 % of control | dose: 3.12 mg/kg/injection, schedule: Q01DX005 (ip), vehicle: water 113 % of control and 118 % of control and 124 % of control | [15] 109 % of control

O=C1CSC(=O)N1c1cccc(Cl)c1
inactive: dose: 1.56 mg/kg/injection, schedule: Q01DX009 (ip), vehicle: saline 99 % of control and 97 % of control | dose: 3.12 mg/kg/injection, schedule: Q01DX009 (ip), vehicle: saline 100 % of control and 103 % of control | dose: 6.25 mg/kg/injection, schedule: Q01DX009 (ip), vehicle: saline 90 % of control and 96 % of control | [13] 106 % of control | [10] 89 % of control

CSC(=S)N/N=C/c1ccc[nH]1
inactive: [10] 100 % of control | [11] 94 % of control

O=C(NC1CCCCC1)Oc1ccc[nH]c1=O
inactive: [16] 92 % of control and 93 % of control | dose: 25.0 mg/kg/injection, schedule: Q01DX009 (sc), vehicle: saline with Tween-80 101 % of control and 109 % of control | [10] 102 % of control and 104 % of control | dose: 50.0 mg/kg/injection, schedule: Q01DX009 (sc), vehicle: saline with Tween-80 106 % of control and 107 % of control | [11] 105 % of control and 98 % of control | dose: 100.0 mg/kg/injection, schedule: Q01DX009 (sc), vehicle: saline with Tween-80 102 % of control and 117 % of control | [12] 102 % of control and 105 % of control | dose: 200.0 mg/kg/injection, schedule: Q01DX009 (sc), vehicle: saline with Tween-80 108 % of control and 111 % of control | dose: 400.0 mg/kg/injection, schedule: Q01DX009 (ip), vehicle: saline 116 % of control and 118 % of control | dose: 400.0 mg/kg/injection, schedule: Q01DX009 (sc), vehicle: saline with Tween-80 104 % of control and 107 % of control | dose: 600.0 mg/kg/injection, schedule: Q01DX009 (sc), vehicle: saline with Tween-80 102 % of control and 113 % of control

C[Si]c1ccccc1CN(C)C
inactive: dose: 50.0 mg/kg/injection, schedule: Q01DX005 (ip), vehicle: saline 106 % of control | dose: 100.0 mg/kg/injection, schedule: Q01DX005 (ip), vehicle: saline 102 % of control

Cc1ccc(S(=O)(=O)NC(=O)c2ccccc2)cc1
inactive: [14] 100 % of control | dose: 200.0 mg/kg/injection, schedule: Q01DX009 (ip), vehicle: saline with Tween-80 100 % of control | dose: 400.0 mg/kg/injection, schedule: Q01DX009 (ip), vehicle: saline with Tween-80 91 % of control

O=c1[nH]c2cc(Cl)ccc2nc1/C=C(\O)c1ccco1
inactive: [4] 102 % of control | [5] 94 % of control | [6] 102 % of control

CNC(=O)c1ccc[n+](C2OC(COC(C)=O)C(OC(C)=O)C2OC(C)=O)c1 (centres undefined)
inactive: [7] 100 % of control | [8] 97 % of control | [9] 91 % of control

C=C1C(=O)OC2CC1C(OC(=O)/C=C/c1ccccc1)C/C(C)=C/CC/C(C)=C/CCC2(C)O (centres undefined)
inactive: dose: 12.5 mg/kg/injection, schedule: Q01DX009 (ip), vehicle: Klucel (hydroxypropylcellulose) (HPC) 113 % of control | [1] 113 % of control | [2] 118 % of control | [3] 110 % of control

COC(=O)c1cc(-c2ccccc2)[nH]c1-c1ccccc1
inactive: dose: 12.5 mg/kg/injection, schedule: Q01DX009 (ip), vehicle: saline 105 % of control | [16] 104 % of control | [10] 102 % of control
